Patent US20160061841A1, “NRF2-BASED CANCER TREATMENT AND DETECTION METHODS AND USES” (CanBas Co., Ltd., priority 2014, published 2016)
“Also recorded” adds a separate entry of the source. Where no end group is shown, it is not given here. [ ]: non-standard residue; d: D form. dPhe(F5) = N[C@H](Cc1c(F)c(F)c(F)c(F)c1F)C(=O)O; dBpa = N[C@H](Cc1ccc(C(=O)c2ccccc2)cc1)C(=O)O; dCha = N[C@H](CC1CCCCC1)C(=O)O

How the values were obtained:
[1] = tested on: H1437 Control (Ctrl)-shRNA and Nrf2-shRNA sub-lines; test: Cell cycle distribution after CDDP with or without CBP501 in H1437 Ctrl-shRNA and Nrf2-shRNA sub-lines; assay type: cell-based, Human; settings: one hour treatment with CDDP with or without CBP501
Description: Cell cycle distribution changes are detected by Flow-cytometry (n=4). The graphs at the left are from the sub-line established by introducing Control (Ctrl)-shRNA into the H1437. The graphs at the right are from the sub-line established by indtroducing Nrf2-shRNA into H1437. Upper graphs indicate the subGl population. Lower graphs indicate the G2-M population. An asterisk indicates statistical significance (TTEST; p<0.001). N.S.=not significant (p>0.01).
(§1) Cell cycle analysis. Cells were plated in 24-well plates and incubated for 24 hours. The cells were treated with or without CDDP plus or minus CBP501 at the indicated concentration for the indicated times. The cells were harvested and stained with Krishan's solution (0.1% sodium citrate, 50 μg/ml propidium iodide, 20 μg/ml RNase A, 0.5% NP-40). Stained cells were analyzed by FACSCalibur (Becton Dickinson, Franklin Lakes, N.J.) using CELLQuest software (Becton Dickinson).
Lentivirus infection. […] Lentivirus infection was performed according to manufacturer's instructions.
The effect of Nrf2 knock-down in the CBP501 insensitive cell line H1437 was investigated.

[2] = tested on: multiple kinases that phosphorylate CDC25C at Ser216; settings: cited from earlier work
[3] = tested on: platinum-resistant ovarian carcinoma and MPM; settings: cited from earlier work
calmodulin = calmodulin (Homo sapiens, UniProt P0DP23); settings: cited from earlier work
14-3-3 protein = settings: cited from earlier work
cancer cells [4] = settings: cited from earlier work
cancer cells [5] = settings: shorter exposure and lower doses of CBP501 than required for G2 checkpoint abrogation; cited from earlier work
NCI-H2122 = test: CDDP-enhancing activity of CBP501, cell cycle distribution by flow-cytometry; assay type: cell-based, Human; settings: 1 h co-exposure with CDDP, shift of subG1 or G2/M dose-response curve
Description: (§2) Cell culture and reagents. Human NSCLC cell lines were cultured in a variety of media, each supplemented with 10% fetal bovine serum (Invitrogen, San Diego, CA) at 37° C. with 5% CO2/air. The media used was RPMI1640 (Sigma-Aldrich, St. Louis, Mo.) for NCI-H1755, NCI-H2030, NCI-H1437, NCI-H2122, NCI-H2172, NCI-H2228, NCI-H1563, NCI-H1944, NCI-H1993, NCI-H1734, NCI-H1568, NCI-H2444, NCI-H2291, NCI-H2347, NCI-H1838, NCI-H1299, HCC827, NCI-H1975, NCI-H1155, NCI-H522 and NCI-H1703; RPMI1640 supplemented with 2mM L-glutamine (Invitrogen) for NCI-H727; RPMI1640 supplemented with 4.5 g/L D-glucose (Sigma-Aldrich), 10 mM HEPES (Sigma-Aldrich) and 1 mM sodium pyruvate (Sigma-Aldrich) for NCI-H358, NCI-H520, NCI-H23, NCI-H647 and NCI-H838; Ham's F12K (Sigma-Aldrich) for A549. CDDP was purchased from Sigma-Aldrich. Sulforaphane (SFN) was purchased from Sigma-Aldrich. All NSCLC cell lines were purchased from ATCC and STR analysis had been performed by ATCC to authenticate the identity of each cell line. All cell lines were used within three months after thawing.
as §1
(§3) Here, the change in the cell cycle distribution, as indicated by flow-cytometry, was used to estimate the sensitivity of NSCLC cell lines to CBP501-enhanced cytotoxicity to CDDP. Such changes were monitored in cells treated with CDDP in the presence or absence of CBP501. The utility of this analysis for assessing the effectiveness of anti-cancer therapy is based on the absence of functioning G1/S checkpoint regulation in the cell cycle of many types of cancer cells (14). Lack of a functional G1/S checkpoint leads to an accumulation of cancer cells in G2/M phase upon their exposure to DNA-damaging anticancer agents (14, 15).
(§4) To assess the CDDP-enhancing activity of CBP501, one can examine either of two dose-response curves in which the X-axis indicates the dose of CDDP and Y-axis indicates either the number of cells in subG1 or in G2/M. The transition and peak in either dose-response curve will shift to the left in the presence of CBP501 for CBP501-sensitive cells, indicating the enhanced ability of CDDP to change the cell cycle distribution. […] Using this criterion based on CBP501's ability to shift the CDDP-induced subG1 or G2/M dose-response curve, twelve NSCLC cell lines were classified as being either, CBP501-sensitive or CBP501-insensitive. Cell lines that shifted the curve two fold or more were classified as CBP501 sensitive cells and those that shifted the curve less than two fold were classified as CBP501 insensitive (Table 1). Classification of CBP501 sensitivity in NSCLC cell lines.

NCI-H2228 = test: as above; assay type: cell-based, Human; settings: 1 h co-exposure with CDDP
Description: as §2, §1, §3, §4

NCI-H838 = test: as above; assay type: cell-based, Human; settings: 1 h co-exposure with CDDP; for Folds increase of CDDP effect by CBP501: shift of subG1 or G2/M dose-response curve
Description: as §2, §1, §3, §4

NCI-H2030 = test: as above; assay type: cell-based, Human; settings: 1 h co-exposure with CDDP, shift of subG1 or G2/M dose-response curve
Description: as §2, §1, §3, §4

NCI-H1944 = test: as above; assay type: cell-based, Human; settings: 1 h co-exposure with CDDP, shift of subG1 or G2/M dose-response curve
Description: as §2, §1, §3, §4

NCI-H2444 = test: as above; assay type: cell-based, Human; settings: 1 h co-exposure with CDDP
Description: as §2, §1, §3, §4

NCI-H2291 = test: as above; assay type: cell-based, Human; settings: 1 h co-exposure with CDDP
Description: as §2, §1, §3, §4

NCI-H2347 = test: as above; assay type: cell-based, Human; settings: 1 h co-exposure with CDDP
Description: as §2, §1, §3, §4

NCI-H2172 = test: as above; assay type: cell-based, Human; settings: 1 h co-exposure with CDDP, shift of subG1 or G2/M dose-response curve
Description: as §2, §1, §3, §4

NCI-H1568 = test: as above; assay type: cell-based, Human; settings: 1 h co-exposure with CDDP
Description: as §2, §1, §3, §4

[6] = shift of subG1 or G2/M dose-response curve
[7] = NCI-H838 (Table 2, additional cell lines)

In the case of “(d-Bpa)(d-Ser)(d-Trp)(d-Ser)(d-Phe-2,3,4,5,6-F)(d-Cha)(d-Arg)(d-Arg)(d-Arg)(d-Gln)(d-Arg)(d-Arg) ([dBpa][dS][dW][dS][dPhe(F5)][dCha][dR][dR][dR][dQ][dR][dR]) [CBP501, anti-cancer drug candidate; calmodulin modulation and G2 checkpoint abrogation]”, the “Effect of CBP501 on CDDP-induced changes in cell cycle distribution (subG1, G2-M)” value ([1]; H1437 Nrf2 knock-down) is listed as “increase the effects of CDDP on changes in the cell cycle distribution of subG1 and G2-M; also recorded: increases CBP501 sensitivity”, the “Effect of CBP501 on CDDP-induced changes in cell cycle distribution (subG1, G2-M)” value ([1]; H1437 control shRNA) is listed as “no difference in CDDP activity with or without CBP501” and the “Inhibition of kinases that phosphorylate CDC25C at Ser216” value [2] is listed as “inhibits multiple kinases that phosphorylate CDC25C at Ser216”. For the same substance, the “Primary endpoint for efficacy” value ([3]; MPM) was “primary endpoint for efficacy was achieved”, the Clinical activity ([3]; combination of CDDP plus CBP501, patients with platinum-resistant ovarian carcinoma and MPM) was “showed evidence of clinical activity” and the Interaction with calmodulin (calmodulin) was “direct interaction”. The “Binding to 14-3-3 protein” value (14-3-3 protein) was “binds directly to 14-3-3 protein”, the “Phosphorylation of CDC25C at Ser216” value (cancer cells [4]) was “attenuates phosphorylation of CDC25C at Ser216” and the “Accumulation of cancer cells at G2/M” value (cancer cells [4]; lengthy combined exposure with CDDP or bleomycin (BLM)) was “reduces the accumulation of cancer cells at G2/M”. For the same substance, the “Uptake of CDDP into cancer cells” value (cancer cells [5]) was “increased uptake of CDDP into cancer cells”, the “Folds increase of CDDP effect by CBP501” value (NCI-H2122) was 1 fold and the “Definition of CBP501 sensitivity” value (NCI-H2228) was “Insensitive (those that shifted the curve less than two fold were classified as CBP501 insensitive)”. For the same substance, the “Folds increase of CDDP effect by CBP501” value (NCI-H2228; [6]) was 1.5 fold, the “Folds increase of CDDP effect by CBP501” value (NCI-H838; NCI-H838 (Table 1, initial twelve cell lines)) was 4 fold and the “Definition of CBP501 sensitivity” value (NCI-H838; [7]) was “Sensitive (Cell lines that shifted the curve two fold or more were classified as CBP501 sensitive cells)”. For the same substance, the “Folds increase of CDDP effect by CBP501” value (NCI-H838; [7]) was 2 fold, the “Folds increase of CDDP effect by CBP501” value (NCI-H2030) was 1 fold and the “Folds increase of CDDP effect by CBP501” value (NCI-H1944) was 1.5 fold. For the same substance, the “Definition of CBP501 sensitivity” value (NCI-H2444) was “Sensitive (Cell lines that shifted the curve two fold or more were classified as CBP501 sensitive cells)”, the “Folds increase of CDDP effect by CBP501” value (NCI-H2444; [6]) was 2 fold and the “Definition of CBP501 sensitivity” value (NCI-H2291) was “Sensitive (Cell lines that shifted the curve two fold or more were classified as CBP501 sensitive cells)”. The “Folds increase of CDDP effect by CBP501” value (NCI-H2291; [6]) was 2 fold, the “Definition of CBP501 sensitivity” value (NCI-H2347) was “Sensitive (Cell lines that shifted the curve two fold or more were classified as CBP501 sensitive cells)” and the “Folds increase of CDDP effect by CBP501” value (NCI-H2347; [6]) was 4 fold. For the same substance, the “Folds increase of CDDP effect by CBP501” value (NCI-H2172) was 1.5 fold, the “Definition of CBP501 sensitivity” value (NCI-H1568) was “Sensitive (Cell lines that shifted the curve two fold or more were classified as CBP501 sensitive cells)” and the “Folds increase of CDDP effect by CBP501” value (NCI-H1568; [6]) was 2 fold.
